Activity calls are given as the source filed them. No rule for the calls is given here.
system: ADSC/ECFC co-culture, VEGF-stimulated, CD31 tube area; experiment: ADSC/ECFC co-culture angiogenesis inhibition – imaging, VEGF stimulation, CD31 staining, tube area, IC50, dose response (AID 1117337)

Row | SMILES | IC50
1 | CC(C)CCCC(C)NCCC(C)C (centres undefined) | > 10 µM (inactive)
2 | CCCCCCNC(=O)n1cc(F)c(=O)[nH]c1=O | 4.49 µM
3 | OC[C@@H](O)[C@H](O)[C@H](O)[C@@H](O)CO | > 10 µM (inactive)
4 | O=C1CC[C@H](C(=O)N2CCCCC2)N1 | > 10 µM (inactive)
5 | CC(C)(CO)[C@@H](O)C(=O)NCCC(=O)NCCSSCCNC(=O)CCNC(=O)[C@H](O)C(C)(C)CO | > 10 µM (inactive)
6 | COC(=O)c1ccccc1C(=O)OC | > 10 µM (inactive)
7 | COc1ccc(-c2ccc3cc(C(=O)O)ccc3c2)cc1C12CC3CC(CC(C3)C1)C2 | 0.524 µM
8 | CC(COc1ccccc1)NN (centres undefined) | > 10 µM (inactive)
9 | CCCCCCCCCCCCCCCCCCCCCC(=O)Nc1ccn([C@@H]2O[C@H](CO)[C@@H](O)[C@H]2O)c(=O)n1 | > 10 µM (inactive)
10 | NC(=O)c1cccnc1 | > 10 µM (inactive)
11 | Cc1ccc(Nc2nccc(N(C)c3ccc4c(C)n(C)nc4c3)n2)cc1S(N)(=O)=O | 0.0465 µM
12 | COc1ccc(CCN2CCC(Nc3nc4ccccc4n3Cc3ccc(F)cc3)CC2)cc1 | > 10 µM (inactive)
13 | COC(=O)C(Cl)C(=O)OC | > 10 µM (inactive)
14 | Cc1cc2nc3ccc(=[N+](C)C)cc-3sc2cc1N | 2.45 µM
15 | Cc1cc(OI)c(C(C)C)cc1-c1cc(C(C)C)c(OI)cc1C | > 10 µM (inactive)
16 | C[C@@H]1C[C@@H]([C@H](O)CC2CC(=O)NC(=O)C2)C(=O)[C@@H](C)C1 | 1.15 µM
17 | C#C[C@]1(O)CC[C@@H]2[C@@H]3CCC4=CCCC[C@@H]4[C@H]3C(=C)C[C@@]21CC | > 10 µM (inactive)
18 | O=C1CC(c2ccc(Cl)cc2)CC(=O)N1 | > 10 µM (inactive)
19 | CSc1ccc(/C=C2/C(C)=C(CC(=O)O)c3cc(F)ccc32)cc1 | > 10 µM (inactive)
20 | COc1ccc(Cc2nccc3cc(OC)c(OC)cc23)cc1OC | 7.8 µM (inactive)

Row | SMILES | IC50
21 | C[C@H]1O[C@@H](O[C@H]2[C@@H](O)C[C@H](O[C@H]3[C@@H](O)C[C@H](O[C@H]4CC[C@@]5(C)[C@H](CC[C@@H]6[C@@H]5CC[C@]5(C)[C@@H](C7=CC(=O)OC7)CC[C@]65O)C4)O[C@@H]3C)O[C@@H]2C)C[C@H](O)[C@@H]1O | 0.011 µM
22 | O=C1NCN(c2ccccc2)C12CCN(CCCC(c1ccc(F)cc1)c1ccc(F)cc1)CC2 | > 10 µM (inactive)
23 | CCCCN(CCCC)CCC(O)c1cc2c(Cl)cc(Cl)cc2c2cc(C(F)(F)F)ccc12 (centres undefined) | > 10 µM (inactive)
24 | S=c1nc[nH]c2nc[nH]c12 | 0.915 µM
25 | COC(=O)c1nc(Cl)c(Cl)nc1N | 0.865 µM
26 | C[C@@H](O[C@H]1OCCN(Cc2n[nH]c(=O)[nH]2)[C@H]1c1ccc(F)cc1)c1cc(C(F)(F)F)cc(C(F)(F)F)c1 | 6.89 µM (inactive)
27 | CCCCCCCCCCCCCC[N+](C)(C)C | 1.9 µM
28 | CN1CCN(C2Cc3ccccc3Sc3ccc(Cl)cc32)CC1 (centres undefined) | 5.23 µM (inactive)
29 | O=C(NC(=O)c1c(F)cccc1F)Nc1ccc(Cl)c(Oc2ncc(C(F)(F)F)cc2Cl)c1 | > 10 µM (inactive)
30 | C1CN(P2(N3CC3)=NP(N3CC3)(N3CC3)=NP(N3CC3)(N3CC3)=N2)CCO1 (centres undefined) | 3.62 µM
31 | COc1ccc2cc1Oc1ccc(cc1)C[C@H]1c3c(cc4c(c3Oc3cc5c(cc3OC)CCN(C)[C@@H]5C2)OCO4)CCN1C | 3.02 µM
32 | CC(=O)Oc1ccccc1C(=O)Nc1ncc([N+](=O)[O-])s1 | 2.06 µM
33 | CCCCCCCCCCC[C@@H](C[C@@H]1OC(=O)[C@H]1CCCCCC)OC(=O)[C@H](CC(C)C)NC=O | > 10 µM (inactive)
34 | CCC1Nc2cc(Cl)c(S(N)(=O)=O)cc2S(=O)(=O)N1 (centres undefined) | > 10 µM (inactive)
35 | COP(=S)(OC)Oc1ccc(Sc2ccc(OP(=S)(OC)OC)cc2)cc1 | > 10 µM (inactive)
36 | Oc1c(Cl)cc(Cl)c2cccnc12 | 2 µM
37 | S=C=Nc1ccc(N=C=S)cc1 | > 10 µM (inactive)
38 | CCCCCCCCOC(=O)c1ccccc1C(=O)OCCCCCCCC | > 10 µM (inactive)
39 | CS(=O)(=O)CCNCc1ccc(-c2ccc3ncnc(Nc4ccc(OCc5cccc(F)c5)c(Cl)c4)c3c2)o1 | > 10 µM (inactive)
